Reference: patent US11311512B2, “Lymph directing prodrugs” (priority 2014, dated 2022)
Where “and” joins values, the source holds several entries; their conditions need not be identical. Identical values can stand only once. Like-named read-outs stand apart in the source and are kept apart here.

Legend:
[1] = for Transport of total TST derivatives in lymph (% of dose): mesenteric lymph-duct cannulated female SD rats; for Fold increase (compared with control group dosed with TU): lymphatic transport of total TST derivatives; for Fold increase (compared with MPA dosed group): lymphatic transport of total MPA derivatives
Procedure: Lipid formulations containing the compound of interest were then administered to the animals, the lymph collected and drug concentrations in the lymph subsequently quantified.
Lipid-based formulations of the compounds of the invention or control compounds were prepared as previously described (Trevaskis, N. L. et al., Pharmaceutical Research, 2005, 22(11), 1863-1870). Briefly, approximately 2 mg of the compound (1 mg in the case of Compound 35 and Compound 1), 40 mg oleic acid and 25 mg Tween 80 were mixed in a glass vial until equilibrated (gentle heat (below 50° C.) may be applied for a short period).
[…] This was to eliminate the potential for the relatively high and variable levels of endogenous testosterone in male rats interfering with the quantification of exogenously dosed testosterone. Rats (240-320 g) were maintained on a standard diet and fasted overnight with free access to water prior to experiments. Anaesthetised rats were placed on a heated pad at 37° C. and cannulas were inserted into the duodenum (for formulation administration and rehydration), mesenteric lymph duct (for lymph collection) and carotid artery (for blood collection) as previously described (Edwards et al. Advanced Drug Delivery Reviews 2001, 50(1), 45-60). Post-surgery, rats were re-hydrated for 0.5 h via intraduodenal infusion of normal saline at 2.8 mL/h. The lipid formulations were infused into the duodenum at 2.8 mL/h for 2 h, after which the infusion was changed to 2.8 mL/h normal saline for the remainder of the experiment. Lymph was continuously collected for 6 to 8 h into pre-weighed Eppendorf tubes containing 10 μL of 1,000 IU/mL heparin. The collection tubes were changed hourly and lymph flow was measured gravimetrically. Aliquots of hourly lymph samples were stored at −80° C. prior to assay.
Drug concentration in lymph is expressed as total drug and includes free drug and drug associated with different glycerides. This is assayed by hydrolysis of lymph (to liberate drug from any re-esterified glycerides) prior to assessment of free drug.
FIG. 1 illustrates the cumulative lymphatic transport of total testosterone related derivatives (% of administered dose) versus time in anaesthetised mesenteric lymph duct cannulated female SD rats following intraduodenal infusion of formulations from 0 to 2 h. Each Formulation contained 2 mg of the exemplified compound or the control, testosterone undecanoate (TU), dispersed in 40 mg oleic acid, 25 mg Tween 80 and 5.6 ml PBS.

[2] = Pharmacokinetic study in rats, testosterone plasma concentrations after oral gavage; settings: testosterone in plasma, oral gavage; for AUC0-24 h fold increase compared with TU group: SD female rats, dose-normalized; for Tmax / AUC0-24 h / Cmax: conscious carotid artery cannulated SD female rats; for AUC0-24 h / Cmax: normalized to 2 mg/kg equivalent testosterone dose
Procedure: In order to assess the oral bioavailability of the compounds of the invention, pharmacokinetic studies were conducted in rats and dogs. […] The rats were then allowed to regain consciousness and fasted overnight prior to the commencement of experiments with free access to water. […] The oral formulation of Compound 2 contained 3 mg of the compound, 20 mg oleic acid and 12.5 mg Tween 80 dispersed in 1 mL PBS. Blood samples were collected from the carotid artery cannula from 5 min prior to administration up to 24 h post-dosing and centrifuged at 5000 rpm for 5 min to separate plasma. […] Plasma samples were stored at −80° C. prior to assay by HPLC-MS-MS. In this case samples were assayed for free drug (i.e. non-glyceride associated drug) and were not hydrolysed prior to assay (as was the case with the lymph samples).
FIG. 12 illustrates dose-normalized testosterone plasma concentrations following oral gavage of formulations to conscious, carotid artery cannulated female SD rats. Formulations contained 1 mg of TU, or 2 mg of compounds of the invention containing testosterone dispersed in 40 mg oleic acid, 25 mg Tween 80 and 2 ml PBS. Doses are normalized to a 2 mg/kg equivalent dose of testosterone. Data are shown as mean±SEM for all groups (n=4 or 3 for each group). The embedded figure is the plot of the dose-normalized plasma AUC0-24h (nmol×h/L) of testosterone in the form of a bar graph.

[3] = In vitro hydrolysis by rat digestive fluid (bile and pancreatic fluid); type: in vitro ADME; settings: 37° C., drug-loaded lipid formulation, up to 180 min
Procedure: In vitro hydrolysis of MPA related compounds was performed via incubation with rat digestive fluid. Rat digestive fluid was collected from anesthetized rats via cannulation of the common bile-pancreatic duct immediately prior to the entry of the duct into the duodenum (i.e. below the point of entry of pancreatic secretions). This allowed simultaneous collection of bile and pancreatic fluid. The digestive fluid was collected continuously for 2 h, during which time a blank lipid formulation (prepared as described in the rat lymphatic transport studies but without the addition of drug) was infused into the duodenum at a rate of 2.8 ml/h to mimic conditions following drug administration. Bile and pancreatic fluid was maintained at 37° C. and used within 0.5 h of collection for in vitro prodrug hydrolysis experiments. The hydrolysis experiments were conducted via incubation (at 37° C.) of 0.375 mL of rat digestive fluid with 0.625 ml of the drug-loaded lipid formulations (as described in the rat lymphatic transport studies). The volume ratio of digestive fluid to formulation mimicked the flow rate of bile and pancreatic fluid (˜1.5 mL/h) and the infusion rate of the intraduodenal formulations (2.8 mL/h) during the in vivo lymphatic transport studies. Aliquots of 10 μL (samples taken at 0, 2, 5, 10, 15, 30, 60, 90, 120, 180 min) were added to 990 μL of acetonitrile:water (4:1, v/v) to stop lipolysis, vortexed for 1 min and centrifuged at 4500 g for 5 min to precipitate proteins prior to analysis. The supernatant was analysed by HPLC-MS for residual compound concentrations, and the potential products of compound hydrolysis were analysed.
On incubation with digestive enzymes the monoglycerides forms of the prodrugs are formed very rapidly. The stability in simulated intestinal conditions is therefore better assessed by the stability of the monoglycerides form that is generated by the initial digestion process. The monoglycerides form must remain intact to be absorbed and re-esterified in the enterocyte prior to entry into the lymphatics. […]

[4] = Pharmacokinetic study in greyhound dogs, testosterone plasma concentrations after oral administration; type: in vivo; settings: fed state
Procedure: For the dog studies, female greyhound dogs were held in a large animal research facility for at least 5 days prior to the commencement of studies. The dogs were allowed to acclimatise for at least 4 days prior to commencing the study. The dogs were fasted for 12 h up to 30 min prior to drug administration. For the fed state studies (n=4 for TU or Compound 13), dogs received 680 g of standard commercial dog food containing 5% fat min prior to drug administration. In the fasted study (n=1 for Compound 13), the dog remained fasted until after 4 h post-dose. Water was available ad libitum throughout the study for all dogs. On the study day, a 20 gauge intravenous catheter was inserted into a cephalic vein to allow blood sampling. The dogs were free to move around (not restrained) after cannulation. For the fed state studies, Andriol Testocaps (the commercial TU product) or Compound 13 was given to the dogs. Andriol Testocaps were supplied by Merck Sharp & Dohme (Australia) Pty Limited and were formulated as soft gelatin capsule containing a 12.0% (w/w) solution of TU in lauroglycol FCC/castor oil [40:60% (w/w)] with the individual capsule composition being 40 mg of TU, lauroglycol FCC, castor oil, gelatin, glycerol, and sunset yellow (E110). Compound 13 was prepared in a long-chain lipid based self-emulsifying drug delivery system (SEDDS) that consisted of 30.5% w/w soybean oil, 30.5% w/w Maisine 35-1, 31.6% w/w Cremophor EL and 7.4% w/w ethanol. Formulations were filled into hard gelatin capsules. Two capsules of Andriol Testocaps containing 80 mg TU or two capsules of Compound 13 containing a total dose of 90 mg Compound 13 dissolved in 2 g of the SEDDS formulation were administrated to the fed greyhound dog by placing the capsules as far posterior to the pharynx as possible, closing the mouth and rubbing the throat to stimulate swallowing. Subsequently 50 mL of water was administered orally via a syringe. Two capsules of Compound 13 formulation were also administrated to the fasted dogs for fasted state studies. After oral administration, blood samples (approx. 3 mL each) were taken via the cephalic vein cannula from 5 min prior to administration up to 10 hours post-dosing. The patency of the catheters was maintained by flushing with a small volume of heparinised saline (1-2 IU/mL) after each blood sample was withdrawn. Blood samples at 24 h were taken by venepuncture. Plasma was separated by centrifugation and aliquots of each plasma sample were transferred into eppendorf tubes and store at −80° C. prior to analysis by LC-MS-MS.

[5] = cited from earlier work
[6] = anaesthetised, intraduodenal infusion 0-2 h, cumulative over 8 h
[7] = female SD rats, intraduodenal infusion
[8] = anaesthetised, mesenteric lymph-duct cannulated male SD rats, intraduodenal infusion 0-2 h, cumulative over 8 h
[9] = male SD rats, intraduodenal infusion

| Compound | Transport of total TST derivatives in lymph (% of dose) [1, 6] | lymphatic transport, fold higher than straight chain counterpart Compound 10 [1, 7] | Fold increase (compared with control group dosed with TU) [1, 7] [fold] | AUC0-24 h fold increase compared with TU group [2] [fold] | Tmax [2] [h] | AUC0-24 h [2] [nM·h] | Cmax [2] [nM] | stability of the monoglyceride form during in vitro incubation with freshly collected rat bile and pancreatic fluid [3] | Transport of total MPA derivatives in lymph (% of dose) [1, 8] | Fold increase (compared with MPA dosed group) [1, 9] [fold] | Transport of total MPA derivatives in lymph (% of dose) ([1]; male SD rats, intraduodenal infusion, co-administration with 0.6 mg of JZL184 and 9 μg of orlistat) | AUC0-24 h fold increase compared with TU group ([4]; greyhound dogs, dose-normalized) [fold] | Cmax ([4]; oral capsules, conscious greyhound dogs, normalized to 2 mg/kg equivalent testosterone dose, TU as Andriol Testocaps, Compound 13 in SEDDS) [nM] | Tmax ([4]; oral capsules, greyhound dogs) [h] | AUC0-24 h ([4]; oral capsules, greyhound dogs, normalized to 2 mg/kg equivalent testosterone dose) [nM·h] | bioavailability of testosterone after oral administration of the undecanoate ester [5] [%] |
| --- | --- | --- | --- | --- | --- | --- | --- | --- | --- | --- | --- | --- | --- | --- | --- | --- |
| CCCCCCCCCCCCCCCC(=O)OCC(COC(=O)CCCCCCCCCCCCCCC)OC(=O)CC(C)CC(=O)O[C@H]1CC[C@H]2[C@@H]3CCC4=CC(=O)CC[C@]4(C)[C@H]3CC[C@]12C (some centres unmarked) [Compound 18] | 28.0 ± 3.4 % of dose | approximately 2 fold | 14.9 | 0.3 | 1.3 ± 0.2 | 2.0 ± 0.1 | 1.8 ± 0.3 | significantly stabilised the monoglyceride intermediates |  |  |  |  |  |  |  |  |
| CCCCCCCCCCCCCCCC(=O)OCC(COC(=O)CCCCCCCCCCCCCCC)OC(=O)CCCCOC(=O)CC/C(C)=C/Cc1c(O)c2c(c(C)c1OC)COC2=O [Compound 31] |  |  |  |  |  |  |  | relatively rapidly degraded | 8.2 % of dose and 8.2 ± 1.3 % of dose | 48.9 |  |  |  |  |  |  |
| CCCCCCCCCCCCCCCC(=O)OCC(COC(=O)CCCCCCCCCCCCCCC)OC(=O)CCCCCOC(=O)CC/C(C)=C/Cc1c(O)c2c(c(C)c1OC)COC2=O [Compound 32] |  |  |  |  |  |  |  | relatively rapidly degraded | 9.6 % of dose and 9.6 ± 1.4 % of dose | 57.5 | 18.8 % of dose |  |  |  |  |  |
| CCCCCCCCCCC(=O)O[C@H]1CC[C@H]2[C@@H]3CCC4=CC(=O)CC[C@]4(C)[C@H]3CC[C@]12C [TU, testosterone undecanoate, reference compound] | 1.9 ± 0.3 % of dose |  | 1.0 | 1.0 | 1.5 ± 0.0 | 6.8 ± 0.4 | 5.6 ± 0.5 |  |  |  |  | 1 | 75.4 ± 12.8 | 1.8 ± 0.1 | 141.1 ± 22.1 | < 5 |
